A short description of data set [1]: Stability in human liver microsomes assessed as parent compound remaining after 10 mins. Format: ADME, Microsome. The note with it: liver microsomes, read-out: Stability. For orientation: Liver microsomes are vesicles of endoplasmic reticulum, rich in cytochrome P450 enzymes.
Data set [2] deals with T1, Nuclear receptor subfamily 1 group I member 2 (Homo sapiens, UniProt O75469).
T1 sequence (O75469 whole entry): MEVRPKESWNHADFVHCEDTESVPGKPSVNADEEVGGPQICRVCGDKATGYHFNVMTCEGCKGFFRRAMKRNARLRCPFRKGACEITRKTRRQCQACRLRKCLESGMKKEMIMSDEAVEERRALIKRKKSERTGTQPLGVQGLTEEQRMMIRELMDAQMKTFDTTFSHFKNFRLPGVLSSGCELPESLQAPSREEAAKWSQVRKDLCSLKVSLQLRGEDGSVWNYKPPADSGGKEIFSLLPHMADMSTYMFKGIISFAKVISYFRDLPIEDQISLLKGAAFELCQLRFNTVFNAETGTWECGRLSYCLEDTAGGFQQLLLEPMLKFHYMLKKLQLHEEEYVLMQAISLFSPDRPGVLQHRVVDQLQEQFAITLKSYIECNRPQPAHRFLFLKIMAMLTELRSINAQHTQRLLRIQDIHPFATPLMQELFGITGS
Nature of the data set: Transactivation of PXR (unknown origin) expressed in human HepG2 cells. Type of data set: cell-based.

Data set [3] deals with T2, PXR (Homo sapiens, UniProt O75469).
T2 sequence (O75469 whole entry): T1 sequence (O75469 whole entry)
Nature of the data set: Transactivation of PXR (unknown origin) expressed in human HepG2 cells assessed as maximum receptor activation response relative to control. Type of data set: cell-based. Conditions: human HepG2 cells that express PXR, read-out: %max.

Data set [4] can be described thus: Stability in mouse liver microsomes assessed as parent compound remaining after 10 mins. Format: ADME, Microsome. Conditions: liver microsomes, read-out: Stability.
For data set [5], the target named is T3, Nuclear receptor ROR-alpha (Homo sapiens, UniProt P35398).
T3 sequence (P35398 whole entry): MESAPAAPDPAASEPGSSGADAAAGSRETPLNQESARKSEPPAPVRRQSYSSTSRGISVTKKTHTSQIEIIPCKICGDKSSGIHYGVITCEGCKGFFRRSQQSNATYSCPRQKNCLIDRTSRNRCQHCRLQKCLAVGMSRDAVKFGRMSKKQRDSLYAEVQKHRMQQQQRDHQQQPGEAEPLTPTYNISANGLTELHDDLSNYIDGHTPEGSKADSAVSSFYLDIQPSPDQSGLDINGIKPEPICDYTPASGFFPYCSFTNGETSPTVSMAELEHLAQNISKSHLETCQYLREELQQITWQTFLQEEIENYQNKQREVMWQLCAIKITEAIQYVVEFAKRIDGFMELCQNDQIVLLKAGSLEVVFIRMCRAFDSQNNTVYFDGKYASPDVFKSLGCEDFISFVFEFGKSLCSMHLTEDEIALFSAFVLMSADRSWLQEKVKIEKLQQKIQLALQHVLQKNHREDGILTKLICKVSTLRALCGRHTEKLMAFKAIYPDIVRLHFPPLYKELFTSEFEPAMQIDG
Nature of the data set: Inverse agonist activity at human Gal4-fused RORalpha LBD (272 to 556 residues) expressed in human Jurkat cells measured after 18 hrs by steady-glo luciferase reporter gene assay. Format: cell-based.

Data set [6] addresses T4, Nuclear receptor ROR-beta (Homo sapiens, UniProt Q92753).
T4 sequence (Q92753 whole entry): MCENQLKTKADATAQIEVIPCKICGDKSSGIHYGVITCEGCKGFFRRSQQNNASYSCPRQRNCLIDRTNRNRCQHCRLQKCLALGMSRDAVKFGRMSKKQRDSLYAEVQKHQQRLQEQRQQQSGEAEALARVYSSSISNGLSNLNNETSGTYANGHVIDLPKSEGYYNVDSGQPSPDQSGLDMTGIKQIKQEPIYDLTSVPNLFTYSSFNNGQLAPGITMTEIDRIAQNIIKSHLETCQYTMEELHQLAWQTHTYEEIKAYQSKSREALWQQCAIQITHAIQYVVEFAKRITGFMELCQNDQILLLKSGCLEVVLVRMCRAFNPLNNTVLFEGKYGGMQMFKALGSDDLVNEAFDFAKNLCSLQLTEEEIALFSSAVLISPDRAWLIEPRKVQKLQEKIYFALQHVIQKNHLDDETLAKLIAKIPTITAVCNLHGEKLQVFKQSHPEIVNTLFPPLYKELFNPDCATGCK
Nature of the data set: Inverse agonist activity at human Gal4-fused RORbeta LBD (200 to 559 residues) expressed in human Jurkat cells measured after 18 hrs by steady-glo luciferase reporter gene assay. Type of data set: cell-based. A general note: Reporter assays use an easily measured gene product as a stand-in for the process of interest.

The target in data set [7] is T5, Oxysterols receptor LXR-alpha (Homo sapiens, UniProt Q13133).
T5 sequence (Q13133 whole entry): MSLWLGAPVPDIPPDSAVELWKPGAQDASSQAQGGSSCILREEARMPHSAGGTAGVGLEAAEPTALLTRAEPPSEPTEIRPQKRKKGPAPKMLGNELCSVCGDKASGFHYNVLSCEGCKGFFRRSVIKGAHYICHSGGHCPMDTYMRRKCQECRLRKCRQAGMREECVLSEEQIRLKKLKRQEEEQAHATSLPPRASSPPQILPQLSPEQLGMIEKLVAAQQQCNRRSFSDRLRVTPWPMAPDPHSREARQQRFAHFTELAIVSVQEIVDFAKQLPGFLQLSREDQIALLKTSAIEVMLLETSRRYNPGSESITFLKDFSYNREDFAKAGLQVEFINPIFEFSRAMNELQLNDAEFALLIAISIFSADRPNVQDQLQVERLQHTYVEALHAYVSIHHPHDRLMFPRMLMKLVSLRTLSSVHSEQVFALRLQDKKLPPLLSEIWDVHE
Briefly: Transactivation of human GAL4-fused LXRalpha expressed in African green monkey CV1 cells. Type of data set: cell-based.

Data set [8] concerns the target T6, Oxysterols receptor LXR-beta (Homo sapiens, UniProt P55055).
T6 sequence (P55055 whole entry): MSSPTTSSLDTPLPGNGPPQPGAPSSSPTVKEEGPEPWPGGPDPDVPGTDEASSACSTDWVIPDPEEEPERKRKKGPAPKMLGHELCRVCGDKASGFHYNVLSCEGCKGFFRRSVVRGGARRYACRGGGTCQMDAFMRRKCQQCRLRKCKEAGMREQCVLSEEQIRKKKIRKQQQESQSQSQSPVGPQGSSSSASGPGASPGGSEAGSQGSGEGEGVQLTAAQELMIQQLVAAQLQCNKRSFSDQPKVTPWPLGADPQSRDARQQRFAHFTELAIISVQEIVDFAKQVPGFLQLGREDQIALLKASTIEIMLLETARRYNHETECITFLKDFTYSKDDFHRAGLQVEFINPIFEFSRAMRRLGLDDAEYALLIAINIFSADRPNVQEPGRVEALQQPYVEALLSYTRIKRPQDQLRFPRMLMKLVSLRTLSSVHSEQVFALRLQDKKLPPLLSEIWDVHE
Briefly: Transactivation of human GAL4-fused LXRbeta expressed in African green monkey CV1 cells. Format: cell-based.

Structures are written as SMILES.

As usually defined, the EC50 is the concentration needed to bring the measured effect to its halfway point.

With `O=C(O)[C@@H]1[C@@H]2C[C@@H](C(=O)N3CC[C@](c4ccc(C(F)(C(F)(F)F)C(F)(F)F)cc4)(S(=O)(=O)c4ccc(F)cc4)C3)C[C@@H]21`, the remaining at 10 min turned out to be 100% in data set [1] and 84% in data set [4]. Moreover, the EC50 in data set [2] is greater than 50 µM; in data set [5], greater than 40 µM; in data set [6] it was greater than 40 µM; in data set [7] it was greater than 7.5 µM; in data set [8] it was greater than 7.5 µM. The Emax in data set [3] amounted to 11%.
For `O=C(N1CC[C@](c2ccc(C(F)(C(F)(F)F)C(F)(F)F)cc2)(S(=O)(=O)c2ccc(F)cc2)C1)C1(F)CCS(=O)(=O)CC1`, the values for the remaining at 10 min in data set [1] and in data set [4] were 100% and 90%, respectively. In addition, the EC50 is greater than 50 µM in data set [2]; greater than 40 µM in data set [5]; greater than 40 µM in data set [6]; greater than 7.5 µM in data set [7]; greater than 7.5 µM in data set [8]. For the same molecule, the Emax in data set [3] stood at 16%.
With `O=C([C@H]1CC[C@H](CO)CC1)N1CC[C@](c2ccc(C(F)(C(F)(F)F)C(F)(F)F)cc2)(S(=O)(=O)c2ccc(F)cc2)C1`, the remaining at 10 min in data set [1] came out at 75%; in data set [4], 63%. Besides, the EC50 was greater than 50 µM in data set [2]; greater than 40 µM in data set [5]; greater than 40 µM in data set [6]; greater than 7.5 µM in data set [7]; greater than 7.5 µM in data set [8]. Further, in data set [3], the Emax came out at 8%.
As for `CCC1(C(=O)N2CC[C@](c3ccc(C(F)(C(F)(F)F)C(F)(F)F)cc3)(S(=O)(=O)c3ccc(F)cc3)C2)CCS(=O)(=O)CC1`, the remaining at 10 min in data set [1] was 3%; in data set [4] it was 0%. Besides, the concentration giving a half-maximal response (EC50) in data set [2] is 5.2 µM; in data set [5], greater than 40 µM; in data set [6], greater than 40 µM; in data set [7], greater than 7.5 µM; in data set [8], greater than 7.5 µM. Moreover, the Emax in data set [3] amounted to 32%.
In the case of `O=C(N1CC[C@](c2ccc(C(F)(C(F)(F)F)C(F)(F)F)cc2)(S(=O)(=O)c2ccc(F)cc2)C1)C1(O)CCS(=O)(=O)CC1`, the remaining at 10 min in data set [1] came out at 100%; in data set [4], 90%. Also, the EC50 in data set [2] is greater than 50 µM; in data set [5] it was greater than 40 µM; in data set [6], greater than 40 µM; in data set [7], greater than 7.5 µM; in data set [8], greater than 7.5 µM. The Emax in data set [3] was determined as 6%.
Consider `O=C(N1CC[C@](c2ccc(C(F)(C(F)(F)F)C(F)(F)F)cc2)(S(=O)(=O)c2ccc(F)cc2)C1)C1(CO)CCS(=O)(=O)CC1`, for which the results for the remaining at 10 min in data set [1] and in data set [4] were 75% and 31%, respectively. Also, the EC50 is greater than 50 µM in data set [2]; greater than 40 µM in data set [5]; greater than 40 µM in data set [6]; greater than 7.5 µM in data set [7]; greater than 7.5 µM in data set [8]. Moreover, the Emax in data set [3] worked out at 8%.
For `O=C([C@H]1CC[C@H](O)CC1)N1CC[C@](c2ccc(C(F)(C(F)(F)F)C(F)(F)F)cc2)(S(=O)(=O)c2ccc(F)cc2)C1`, the results for the remaining at 10 min in data set [1] and in data set [4] were 86% and 58%, respectively. Further, the EC50 is greater than 50 µM in data set [2]; greater than 40 µM in data set [5]; greater than 40 µM in data set [6]; greater than 7.5 µM in data set [7]; greater than 7.5 µM in data set [8]. Besides, in data set [3], the Emax stood at 13%.
With `O=C(O)C12CCC(C(=O)N3CC[C@](c4ccc(C(F)(C(F)(F)F)C(F)(F)F)cc4)(S(=O)(=O)c4ccc(F)cc4)C3)(CC1)OC2`, the remaining at 10 min in data set [1] came out at 90%; in data set [4], 94%. Further, the EC50 is greater than 50 µM in data set [2]; greater than 40 µM in data set [5]; greater than 40 µM in data set [6]; greater than 7.5 µM in data set [7]; greater than 7.5 µM in data set [8]. Further, the Emax in data set [3] was found to be 5%.
Regarding `COC[C@]1(C(=O)N2CC[C@](c3ccc(C(F)(C(F)(F)F)C(F)(F)F)cc3)(S(=O)(=O)c3ccc(F)cc3)C2)CC[C@H](C(=O)O)CC1`, the remaining at 10 min in data set [1] was determined as 100%; in data set [4] it was 88%. The concentration for a half-maximal effect (EC50) in data set [2] was greater than 50 µM; in data set [5] it was greater than 40 µM; in data set [6], greater than 40 µM; in data set [7] it was greater than 7.5 µM; in data set [8], greater than 7.5 µM. Besides, in data set [3], the Emax worked out at 7%.
Take `O=C(C1CCS(=O)(=O)CC1)N1CC[C@](c2ccc(C(F)(C(F)(F)F)C(F)(F)F)cc2)(S(=O)(=O)c2ccc(F)cc2)C1`: the remaining at 10 min in data set [1] was 93%; in data set [4], 96%. The EC50 was greater than 50 µM in data set [2]; greater than 40 µM in data set [5]; greater than 40 µM in data set [6]; greater than 7.5 µM in data set [7]; greater than 7.5 µM in data set [8]. In addition, the Emax in data set [3] worked out at 5%.
For `O=C(O)[C@@H]1C[C@@H]2[C@H](C1)[C@H]2C(=O)N1CC[C@](c2ccc(C(F)(C(F)(F)F)C(F)(F)F)cc2)(S(=O)(=O)c2ccc(F)cc2)C1`, the remaining at 10 min in data set [1] and in data set [4] was 100% throughout. For the same molecule, the EC50 in data set [2] is greater than 33 µM; in data set [5], greater than 40 µM; in data set [6] it was greater than 40 µM; in data set [7] it was greater than 7.5 µM; in data set [8], greater than 7.5 µM. For the same molecule, the Emax in data set [3] worked out at 43%.
`NC(=O)[C@H]1CC[C@H](C(=O)N2CC[C@](c3ccc(C(F)(C(F)(F)F)C(F)(F)F)cc3)(S(=O)(=O)c3ccc(F)cc3)C2)CC1`: the remaining at 10 min in data set [1] and in data set [4] was 100% in each case. Also, the EC50 in data set [2] is greater than 50 µM; in data set [5], greater than 40 µM; in data set [6], greater than 40 µM; in data set [7], greater than 7.5 µM; in data set [8], greater than 7.5 µM. For the same molecule, the Emax in data set [3] amounted to 5%.
Regarding `CO[C@]1(C(=O)N2CC[C@](c3ccc(C(F)(C(F)(F)F)C(F)(F)F)cc3)(S(=O)(=O)c3ccc(F)cc3)C2)CC[C@H](C(=O)O)CC1`, the remaining at 10 min in data set [1] stood at 82%; in data set [4] it was 95%. For the same molecule, the half-maximal effective concentration (EC50) was greater than 18 µM in data set [2]; greater than 40 µM in data set [5]; greater than 40 µM in data set [6]; greater than 7.5 µM in data set [7]; greater than 7.5 µM in data set [8]. The Emax in data set [3] was found to be 94%.
